Data: ChEMBL document CHEMBL4393717, “Development of novel human lactate dehydrogenase A inhibitors: High-throughput screening, synthesis, and biological evaluations” (Eur J Med Chem, 2019)
Active and inactive are the calls of the source. The rule behind the calls is not given here.

Experiments:
[1] = test system: MIA PaCa-2; assay: Inhibition of colony formation in human MIAPaCa2 cells at 0.5 uM treated for 3 days and supplemented with fresh medium with out compound every 3 days measured after 15 days by crystal violet staining based assay; type: functional, cell-based
[2] = test system: MIA PaCa-2; assay: Induction of apoptosis in human MIAPaCa2 cells assessed as viable cells at 5 uM incubated for 12 hrs by annexin V and propidium iodide staining based flow cytometry analysis (reference value: 94.85 %); type: functional; conditions: MIA PaCa-2, 12 h, read-out: Activity
[3] = test system: MIA PaCa-2; assay: Induction of apoptosis in human MIAPaCa2 cells assessed as early apoptotic cells at 5 uM incubated for 12 hrs by annexin V and propidium iodide staining based flow cytometry analysis (reference value: 0.40 %); type: functional
[4] = test system: MIA PaCa-2; assay: Induction of apoptosis in human MIAPaCa2 cells assessed as late apoptotic cells at 5 uM incubated for 12 hrs by annexin V and propidium iodide staining based flow cytometry analysis (reference value: 3.21 %); type: functional
[5] = test system: MIA PaCa-2; assay: Induction of apoptosis in human MIAPaCa2 cells assessed as necrotic cells at 5 uM incubated for 12 hrs by annexin V and propidium iodide staining based flow cytometry analysis (reference value: 1.54 %); type: functional
[6] = test system: MIA PaCa-2; assay: Cell cycle arrest in human MIAPaCa2 cells assessed as accumulation at G1 phase at 5 uM incubated for 24 hrs by propidium iodide staining based flow cytometry (reference value: 56.01%); type: functional
[7] = test system: MIA PaCa-2; assay: Cell cycle arrest in human MIAPaCa2 cells assessed as accumulation at S phase at 5 uM incubated for 24 hrs by propidium iodide staining based flow cytometry (reference value: 12.99%); type: functional
[8] = test system: MIA PaCa-2; assay: Cell cycle arrest in human MIAPaCa2 cells assessed as accumulation at G2 phase at 5 uM incubated for 24 hrs by propidium iodide staining based flow cytometry (reference value: 31.00%); type: functional
[9] = target: T1, L-lactate dehydrogenase A chain (Homo sapiens, UniProt P00338); assay: Inhibition of recombinant human full-length N-terminal His-tagged LDHA (1 to 332 residues) expressed in Escherichia coli using sodium pyruvate as substrate incubated for 10 mins
[10] = test system: MIA PaCa-2; assay: Antiproliferative activity against human MIAPaCa2 cells assessed as reduction in cell viability at 50 uM incubated for 72 hrs by MTT assay relative to control; type: functional
[11] = test system: A549; assay: Antiproliferative activity against human A549 cells assessed as reduction in cell viability at 50 uM incubated for 72 hrs by MTT assay relative to control; type: functional
[12] = test system: MCF7; assay: Antiproliferative activity against human MCF7 cells assessed as reduction in cell viability at 50 uM incubated for 72 hrs by MTT assay relative to control; type: functional
[13] = test system: MIA PaCa-2; assay: Antiproliferative activity against human MIAPaCa2 cells assessed as reduction in cell viability incubated for 72 hrs by MTT assay; type: functional, cell-based; conditions: MIA PaCa-2, 72 h
[14] = test system: A549; assay: Antiproliferative activity against human A549 cells assessed as reduction in cell viability at incubated for 72 hrs by MTT assay; type: functional, cell-based; conditions: A549, 72 h
[15] = target: T1, L-lactate dehydrogenase A chain; assay: Inhibition of recombinant human full-length N-terminal His-tagged LDHA (1 to 332 residues) expressed in Escherichia coli at 10 uM using sodium pyruvate as substrate incubated for 10 mins relative to control

| EC50 [9] | IC50 [13] | IC50 [14] | inhibition [15] | Structure (SMILES) | inhibition [1] | viability at 5 µM [2] | Activity [3] | Activity [4] | Activity [5] | Activity [6] | Activity [7] | Activity [8] | inhibition [10] | inhibition [11] | inhibition [12] | inhibition at 50 µM ([10]; MIA PaCa-2, 72 h) | inhibition at 50 µM ([11]; A549, 72 h) | inhibition at 50 µM ([12]; MCF7, 72 h) |
| --- | --- | --- | --- | --- | --- | --- | --- | --- | --- | --- | --- | --- | --- | --- | --- | --- | --- | --- |
|  |  |  |  | COc1cccc2c1C(=O)c1c(O)c3c(c(O)c1C2=O)C[C@@](O)(C(=O)CO)C[C@@H]3O[C@H]1C[C@H](N)[C@H](O)[C@H](C)O1 [DOXORUBICIN] | Active | 74.7% | 2.26% | 15.66% | 7.4% | 40.09% | 5.54% | 54.37% |  |  |  |  |  |  |
| 4.58 µM | > 50 µM | > 50 µM | > 90% | COc1cc(CNC(=O)c2c(OC)cc(=O)n3c2CCC3)cc(OC)c1OC |  |  |  |  |  |  |  |  | inactive | inactive | inactive |  |  |  |
| 1.8 µM | > 50 µM | > 50 µM | > 90% | N#Cc1cccnc1N1CCC(CNC(=O)C(=O)Nc2cccc(C(F)(F)F)c2)CC1 |  |  |  |  |  |  |  |  |  |  |  | 56.8% | 45.7% | 38.7% |
| 7.5 µM | > 50 µM | > 50 µM | > 90% | COc1cccc2c1OC(C(=O)N1CCC(Cn3ccnc3C(C)C)CC1)C2 (centres undefined) |  |  |  |  |  |  |  |  | inactive | inactive | inactive |  |  |  |
